# Measurements published in PubChem BioAssay (NCI).
#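 In this assay, cells in 96-well plates receive the compound at five concentrations for 48 hours. Endpoints are linearly interpolated between the surrounding concentrations. At the TGI there is no net growth.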
# Key:
# Assay in all cases: DTP human tumour cell line panel, 48 h
# [1] = tested on: K-562 leukemia
# [2] = tested on: LOX IMVI melanoma
# [3] = tested on: RXF-631 renal
# [4] = tested on: UACC-62 melanoma
# [5] = tested on: HOP-62 NSCLC
# [6] = tested on: UACC-257 melanoma
# [7] = tested on: OVCAR-3 ovarian
# [8] = tested on: OVCAR-4 ovarian
# [9] = tested on: U251 CNS
# [10] = tested on: SK-OV-3 ovarian
# [11] = tested on: M14 melanoma
# [12] = tested on: HL-60(TB) leukemia
# [13] = tested on: SF-295 CNS
# [14] = tested on: COLO 205 colon
# [15] = tested on: A498 renal
# [16] = tested on: SN12C renal
# [17] = tested on: DLD-1 colon
# [18] = tested on: A549 NSCLC
# [19] = tested on: SK-MEL-28 melanoma
# [20] = tested on: EKVX NSCLC
# [21] = tested on: SNB-75 CNS
# [22] = tested on: SNB-19 CNS
# [23] = tested on: MOLT-4 leukemia
# [24] = tested on: HCT-15 colon
# [25] = tested on: SK-MEL-2 melanoma
# [26] = tested on: OVCAR-8 ovarian
# [27] = tested on: SF-268 CNS
# [28] = tested on: DMS 114 small cell lung
# [29] = tested on: TK-10 renal
# [30] = tested on: UO-31 renal
# [31] = tested on: HOP-92 NSCLC
# [32] = tested on: SK-MEL-5 melanoma
# [33] = tested on: CCRF-CEM leukemia
# [34] = tested on: HT29 colon
# [35] = tested on: M19-MEL melanoma
# [36] = tested on: DMS 273 small cell lung
# [37] = tested on: 786-0 renal
# [38] = tested on: OVCAR-5 ovarian
# [39] = tested on: RPMI-8226 leukemia
# [40] = tested on: HCT-116 colon
# [41] = tested on: RXF 393 renal
# [42] = tested on: NCI-H23 lung
# [43] = tested on: CAKI-1 renal
# [44] = tested on: IGROV1 ovarian
# [45] = tested on: NCI-H460 lung
# [46] = tested on: SNB-78 CNS
# [47] = tested on: HCC-2998 colon
# [48] = tested on: MALME-3M melanoma
# [49] = tested on: XF 498 CNS
# [50] = tested on: SW-620 colon
# [51] = tested on: KM12 colon
# [52] = tested on: SF-539 CNS
# [53] = tested on: ACHN renal
# [54] = tested on: HOP-18 NSCLC
# [55] = tested on: SR leukemia
# [56] = tested on: NCI-H522 lung
# [57] = tested on: LXFL 529 NSCLC
compound,measurement,setting,value
CCCCSN1C(=O)c2ccccc2C1=S,TGI,[1],69.5 µM
same,TGI,[2],> 100 µM
same,TGI,[3],> 100 µM
same,TGI,[4],> 100 µM
same,TGI,[5],> 100 µM
same,TGI,[6],> 100 µM
same,TGI,[7],> 100 µM
same,TGI,[8],> 100 µM
same,TGI,[9],> 100 µM
same,TGI,[10],> 100 µM
same,TGI,[11],> 100 µM
same,TGI,[12],51.2 µM
same,TGI,[13],> 100 µM
same,TGI,[14],> 100 µM
same,TGI,[15],> 100 µM
same,TGI,[16],> 100 µM
same,TGI,[17],> 100 µM
same,TGI,[18],> 100 µM
same,TGI,[19],> 100 µM
same,TGI,[20],> 100 µM
same,TGI,[21],> 100 µM
same,TGI,[22],> 100 µM
same,TGI,[23],50.3 µM
same,TGI,[24],> 100 µM
same,TGI,[25],> 100 µM
same,TGI,[26],> 100 µM
same,TGI,[27],> 100 µM
same,TGI,[28],> 100 µM
same,TGI,[29],> 100 µM
same,TGI,[30],> 100 µM
same,TGI,[31],> 100 µM
same,TGI,[32],> 100 µM
same,TGI,[33],53 µM
same,TGI,[34],> 100 µM
same,TGI,[35],> 100 µM
same,TGI,[36],> 100 µM
same,TGI,[37],> 100 µM
same,TGI,[38],> 100 µM
same,TGI,[39],49.4 µM
same,TGI,[40],> 100 µM
same,TGI,[41],> 100 µM
same,TGI,[42],> 100 µM
same,TGI,[43],> 100 µM
same,TGI,[44],> 100 µM
same,TGI,[45],> 100 µM
same,TGI,[46],> 100 µM
same,TGI,[47],> 100 µM
same,TGI,[48],> 100 µM
same,TGI,[49],> 100 µM
same,TGI,[50],> 100 µM
same,TGI,[51],> 100 µM
same,TGI,[52],> 100 µM
same,TGI,[53],> 100 µM
O=C(O)c1c[nH]c2c(=O)[nH]cnc12,TGI,[1],> 100 µM
same,TGI,[2],> 100 µM
same,TGI,[3],> 100 µM
same,TGI,[4],> 100 µM
same,TGI,[5],> 100 µM
same,TGI,[6],> 100 µM
same,TGI,[7],> 100 µM
same,TGI,[54],> 100 µM
same,TGI,[10],> 100 µM
same,TGI,[11],> 100 µM
same,TGI,[12],> 100 µM
same,TGI,[55],> 100 µM
same,TGI,[13],> 100 µM
same,TGI,[14],> 100 µM
same,TGI,[16],> 100 µM
same,TGI,[17],> 100 µM
same,TGI,[18],> 100 µM
same,TGI,[19],> 100 µM
same,TGI,[20],> 100 µM
same,TGI,[21],> 100 µM
same,TGI,[22],> 100 µM
same,TGI,[23],> 100 µM
same,TGI,[24],> 100 µM
same,TGI,[25],> 100 µM
same,TGI,[26],> 100 µM
same,TGI,[27],> 100 µM
same,TGI,[28],> 100 µM
same,TGI,[29],> 100 µM
same,TGI,[56],> 100 µM
same,TGI,[30],> 100 µM
same,TGI,[31],> 100 µM
same,TGI,[57],> 100 µM
same,TGI,[32],> 100 µM
same,TGI,[33],> 100 µM
same,TGI,[34],> 100 µM
same,TGI,[35],> 100 µM
same,TGI,[37],> 100 µM
same,TGI,[38],> 100 µM
same,TGI,[39],> 100 µM
same,TGI,[40],> 100 µM
same,TGI,[41],> 100 µM
same,TGI,[42],> 100 µM
same,TGI,[43],> 100 µM
same,TGI,[44],> 100 µM
same,TGI,[46],> 100 µM
same,TGI,[47],> 100 µM
same,TGI,[48],> 100 µM
same,TGI,[50],> 100 µM
same,TGI,[51],> 100 µM
same,TGI,[53],> 100 µM
